The values below come from US20260285880A1, “SUBSTITUTED DIHYDROTHIENOPYRIMIDINE COMPOUND, PREPARATION METHOD THEREFOR, AND USE THEREOF” (SHANGHAI YIDI BIOTECHNOLOGY CO., LTD., priority 2023, published 2026).

Read-outs that look alike come from different tables or passages of the source.

In assay [1] the target is T1, Flpin-293-PDE4B2 cells (Homo sapiens, UniProt Q07343). Conditions: for IC50: read-out: PDE4B2 IC50 Cell, Foskolin; for Cell Inhibition % @10 nM: 0.01 µM; for Cell Inhibition % @1 nM: 0.001 µM; for Cell Inhibition % @100 nM: 0.1 µM.
Description: (§1) All compounds were dissolved in DMSO into 10 mM or 20 mM stock solutions. The compound to be tested was diluted with DMSO with a 3-fold gradient. […] 40 nL/well of the compound or a DMSO control was transferred to a 384-well plate by using Echo 550 instrument. […] The plate was incubated at 37° C. for 30 minutes. Eu-cAMP tracer and Ulight-anti-cAMP were frozen and thawed and diluted in a lysis buffer. 10 of μl Eu-cAMP tracer was added to an experimental well, and 10 μl of Ulight-anti-cAMP was added to the experimental well. The reaction plate was centrifuged at 200 g at room temperature for 30 s and then left to stand at 25° C. for 1 h, and data was then collected by Envision. Inhibition %=100−(Signal compound−SignalAve positive control)/(SignalAve negative control−SignalAve positive control)×100.
In assay [2] the target is T1, Flpin-293-PDE4B2 cells. Kind of assay: cell-based. Conditions: for inhibition at 0.01 µM: read-out: Cell Inhibition % @10 nM, 10 nM, Flpin-293-PDE4B2 cells; for inhibition at 0.1 µM: read-out: Cell Inhibition % @100 nM, 100 nM, Flpin-293-PDE4B2 cells; for inhibition at 0.001 µM: read-out: Cell Inhibition % @1 nM, 1 nM, Flpin-293-PDE4B2 cells.
Description: as §1
Assay [3] deals with T2, PDE4B2 (Homo sapiens, UniProt Q07343). Kind of assay: biochemical. To be noted: for inhibition at 0.01 µM: read-out: PDE4B2 Enzyme Inhibition % @10 nM; for inhibition at 0.1 µM: read-out: PDE4B2 Enzyme Inhibition % @100 nM.
Description: (§2) All compounds were dissolved in DMSO into 10 mM or 20 mM stock solutions. The compound to be tested was diluted with DMSO in a 3-fold gradient. 20 nL/well of the compound or a DMSO control was transferred to a 384-well plate by using Echo 550 instrument. The plate was sealed with a membrane and centrifuged for 1 minute. A 2× enzyme solution was prepared with an assay buffer, and 2 uL/well of the 2× enzyme solution was added, followed by equilibration at room temperature for 10 minutes. A 2× Cyclic-3′,5′-AMP substrate solution was prepared with an assay buffer, and 2 uL/well of the 2× substrate solution was added, followed by incubation at room temperature for 60 minutes. 4 μL of AMP-glo reagent was added, followed by incubation at room temperature for 60 minutes. 8 ul of an AMP detection solution was added, followed by incubation at room temperature for 60 minutes. An RLU value was read on Envision 2105 plate reader. The RLU value represents the concentration of the product AMP. Inhibition rate %=(1−(RLUpositive control−RLUcomnpound)/(RLUpositive control−RLUnegative control))*100. The IC50 value was then calculated by Graphpad 8.0 software using Y=Bottom+(Top−Bottom)/(1+10^((LogIC50−X)*HillSlope)).
A further assay has as its target PDE4D2 (Homo sapiens, UniProt Q08499). Kind of assay: PDE4D2 enzyme experiment (AMP-Glo).
The target in assay [4] is T2, PDE4B2. Conditions: read-out: PDE4B2 IC50; enzyme assay.
Description: as §2
Where [5] appears, read: read-out: PDE4D2 IC50 Binding, enzyme assay.

Sequence of PDE4D2 (Q08499 303-809 limits assumed): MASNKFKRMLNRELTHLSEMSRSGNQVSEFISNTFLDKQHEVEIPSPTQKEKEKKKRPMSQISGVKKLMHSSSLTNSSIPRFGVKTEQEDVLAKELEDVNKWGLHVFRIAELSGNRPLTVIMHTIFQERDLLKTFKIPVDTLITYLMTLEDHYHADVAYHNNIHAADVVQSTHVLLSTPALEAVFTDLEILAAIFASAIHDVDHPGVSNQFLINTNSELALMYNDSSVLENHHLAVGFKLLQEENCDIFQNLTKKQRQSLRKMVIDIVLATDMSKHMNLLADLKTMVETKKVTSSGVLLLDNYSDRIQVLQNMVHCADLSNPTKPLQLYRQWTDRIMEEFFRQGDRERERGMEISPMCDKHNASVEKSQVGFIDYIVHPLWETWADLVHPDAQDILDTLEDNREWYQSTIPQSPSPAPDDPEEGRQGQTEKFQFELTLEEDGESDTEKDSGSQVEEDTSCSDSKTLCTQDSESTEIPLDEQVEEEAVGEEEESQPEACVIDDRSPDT
T1 sequence (Q07343 1-564 isoform Q07343-2): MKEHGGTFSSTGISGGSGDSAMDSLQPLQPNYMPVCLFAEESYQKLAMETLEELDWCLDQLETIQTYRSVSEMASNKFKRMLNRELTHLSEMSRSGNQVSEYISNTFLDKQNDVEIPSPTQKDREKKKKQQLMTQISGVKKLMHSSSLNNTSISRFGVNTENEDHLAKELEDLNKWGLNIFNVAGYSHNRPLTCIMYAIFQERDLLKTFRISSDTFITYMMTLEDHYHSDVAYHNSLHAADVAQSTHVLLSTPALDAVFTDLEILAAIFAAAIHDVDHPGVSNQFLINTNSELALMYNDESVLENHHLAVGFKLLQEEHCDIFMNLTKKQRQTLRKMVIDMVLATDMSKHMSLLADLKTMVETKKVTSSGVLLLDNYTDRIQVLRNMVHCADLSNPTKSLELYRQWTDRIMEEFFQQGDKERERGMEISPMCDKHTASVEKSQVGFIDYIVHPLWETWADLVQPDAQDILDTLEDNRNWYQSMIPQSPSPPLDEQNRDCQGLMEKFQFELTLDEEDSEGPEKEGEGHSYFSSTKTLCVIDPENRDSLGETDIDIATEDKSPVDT
T2 sequence (Q07343 1-564 isoform Q07343-2, species assumed): as the sequence (Q07343 1-564 isoform Q07343-2) above
Description for PDE4D2: as §2

As a reminder, the IC50 is the concentration at which inhibition is half-maximal. In the case of `C[C@@H]1c2ccc(Cl)cc2CCN1c1nc2c(c(NC3(CO)CCC3)n1)[S@+]([O-])CC2` [Compound 29], the IC50 on Flpin-293-PDE4B2 cells [1] was 20.9 nM.

For orientation: inhibition means the relative decrease from the control value, in per cent. On to `[O-][S+]1CCc2nc(N3Cc4ccc(Cl)cc4C3)nc(NC3(CO)CCC3)c21` (stereo not shown) [Compound 33], for which the inhibition at 0.01 µM is 9% on Flpin-293-PDE4B2 cells [2] and 72.3% on PDE4B2 [3]. In addition, the inhibition at 0.1 µM came to 33.2% at Flpin-293-PDE4B2 cells [2] and 98.6% on PDE4B2 [3].

On to `[O-][S+]1CCc2nc(N3CCc4ccsc4C3)nc(NC3(CO)CCC3)c21` (stereo not shown) [Compound 36], for which the inhibition at 0.01 µM on Flpin-293-PDE4B2 cells [2] turned out to be 18.1%; at PDE4B2 [3], 74.5%. Besides, the inhibition at 0.1 µM was determined as 66.6% on Flpin-293-PDE4B2 cells [2] and 99% on PDE4B2 [3].

With `[O-][S+]1CCc2nc(N3CCc4ccc(Br)cc4CC3)nc(NC3(CO)CCC3)c21` (stereo not shown) [Compound 46], the figures for the inhibition at 0.01 µM on Flpin-293-PDE4B2 cells [2] and at PDE4B2 [3] were 69.6% and 98.9%, respectively. Besides, the inhibition at 0.1 µM is 99% on Flpin-293-PDE4B2 cells [2] and 100% on PDE4B2 [3].

Turning to `COc1ccc2c(c1)CCN(c1nc3c(c(NC4(CO)CCC4)n1)[S+]([O-])CC3)CC2` (stereo not shown) [Compound 47], on PDE4B2 [3], the inhibition at 0.01 µM stood at 98.4% and the inhibition at 0.1 µM was determined as 100%.

As for `[O-][S+]1CCc2nc(N3CCc4sc(Br)cc4C3)nc(NC3(CO)CCC3)c21` (stereo not shown) [Compound 55], at Flpin-293-PDE4B2 cells [2], the inhibition at 0.01 µM amounted to 52.8% and the inhibition at 0.1 µM is 93.4%. At PDE4B2 [3], the inhibition at 0.01 µM was found to be 93.3% and the inhibition at 0.1 µM was 99.9%.

In the case of `Cn1nc2c(c1Cl)CN(c1nc3c(c(NC4(CO)CCC4)n1)[S+]([O-])CC3)CC2` (stereo not shown) [Compound 58], on Flpin-293-PDE4B2 cells [2], the inhibition at 0.01 µM was determined as 15.9% and the inhibition at 0.1 µM was found to be 57.1%. Besides, at PDE4B2 [3], the inhibition at 0.01 µM is 68.7% and the inhibition at 0.1 µM amounted to 97.5%.

With `O=[N+]([O-])c1ccc2c(c1)CN(c1nc3c(c(NC4(CO)CCC4)n1)[S+]([O-])CC3)C2` (stereo not shown) [Compound 61], on Flpin-293-PDE4B2 cells [2], the inhibition at 0.01 µM came to 17.7% and the inhibition at 0.1 µM turned out to be 55.2%. Besides, on PDE4B2 [3], the inhibition at 0.01 µM was 70.9% and the inhibition at 0.1 µM was determined as 98.2%.

Turning to `[O-][S+]1CCc2nc(N3Cc4ccc(C(F)(F)F)cc4C3)nc(NC3(CO)CCC3)c21` (stereo not shown) [Compound 62], at Flpin-293-PDE4B2 cells [2], the inhibition at 0.01 µM worked out at 29.5% and the inhibition at 0.1 µM came to 69.1%. Also, at PDE4B2 [3], the inhibition at 0.01 µM stood at 83.8% and the inhibition at 0.1 µM is 101%.

As for `[O-][S@+]1CCc2nc(N3CCc4c(ccc5[nH]ncc45)C3)nc(NC3(CO)CCC3)c21` [Compound 118, (R)-4-((1-(hydroxymethyl)cyclobutyl)amino)-2-(3,6,8,9-tetrahydro-7H-pyrazolo[4,3-f]isoquinolin-7-yl)-6,7-dihydrothieno[3,2-d]pyrimidine 5-oxide], the IC50 on PDE4B2 [3] is 0.414 nM; against PDE4D2 it was 0.748 nM.

For `[O-][S+]1CCc2nc(N3CCc4cc(N5CCCC5C(F)(F)F)ccc4C3)nc(NC3(CO)CCC3)c21` (stereo not shown) [Compound 157], on Flpin-293-PDE4B2 cells [2], the inhibition at 0.001 µM was 8.27% and the inhibition at 0.1 µM came out at 83.1%. The “Cell Inhibition % @10 nM” value on Flpin-293-PDE4B2 cells [1] came to 23.21%.

Turning to `[O-][S+]1CCc2nc(N3CCc4cc(N5CCCC5C(F)(F)F)ccc4C3)nc(NC3(CO)CCC3)c21` (stereo not shown) [Compound 158], on Flpin-293-PDE4B2 cells [1], the “Cell Inhibition % @1 nM” value is 14.79%, the “Cell Inhibition % @10 nM” value amounted to 61.64% and the “Cell Inhibition % @100 nM” value was determined as 99.33%. Besides, on PDE4B2 [4], the IC50 is 0.273 nM. Also, on PDE4D2 (setting [5]), the IC50 came out at 0.653 nM.

On to `N#CC1CCN(c2ccc3c(c2)CCN(c2nc4c(c(NC5(CO)CCC5)n2)[S+]([O-])CC4)C3)C1` (stereo not shown) [Compound 160], for which, on Flpin-293-PDE4B2 cells [1], the “Cell Inhibition % @1 nM” value stood at 15.06%, the “Cell Inhibition % @10 nM” value was 75.05% and the “Cell Inhibition % @100 nM” value stood at 99.84%. Moreover, at PDE4B2 [4], the IC50 stood at 0.224 nM. Also, at PDE4D2 (setting [5]), the IC50 amounted to 0.748 nM.

For `C[C@H]1c2ccc(N3CCCC3)cc2CCN1c1nc2c(c(NC3(CO)CCC3)n1)[S+]([O-])CC2` (stereo partly shown) [Compound 167], the IC50 on Flpin-293-PDE4B2 cells [1] was 20.7 nM; at PDE4B2 [4], 0.087 nM; at PDE4D2 (setting [5]) it was 0.993 nM.

Take `[O-][S+]1CCc2nc(N3CCc4cc(N5CCCC5)ccc4C3)nc(Nc3cnn(C4COC4)c3)c21` (stereo not shown) [Compound 192]: at Flpin-293-PDE4B2 cells [2], the inhibition at 0.001 µM worked out at 15.4%, the inhibition at 0.01 µM was 60.3% and the inhibition at 0.1 µM turned out to be 99.2%. Moreover, on PDE4B2 [4], the IC50 stood at 0.14 nM. Moreover, the IC50 at PDE4D2 (setting [5]) is 0.45 nM.

Turning to `COc1nn(C)cc1Nc1nc(N2CCc3cc(N4CCCC4)ccc3C2)nc2c1[S+]([O-])CC2` (stereo not shown) [Compound 193], on Flpin-293-PDE4B2 cells [2], the inhibition at 0.001 µM was 4.88%, the inhibition at 0.01 µM amounted to 38.2% and the inhibition at 0.1 µM is 96%. For the same compound, the concentration for half-maximal inhibition (IC50) at PDE4B2 [4] is 0.417 nM. Besides, the IC50 on PDE4D2 (setting [5]) turned out to be 1.27 nM.

Consider `[O-][S+]1CCc2nc(N3CCc4cc(N5CCCC5)ccc4C3)nc(Nc3cn[nH]c3)c21` (stereo not shown) [Compound 194], for which, at Flpin-293-PDE4B2 cells [2], the inhibition at 0.001 µM worked out at 4.28%, the inhibition at 0.01 µM came to 33.6% and the inhibition at 0.1 µM was found to be 92.9%. The IC50 at PDE4B2 [4] was 0.333 nM. Moreover, on PDE4D2 (setting [5]), the IC50 is 1.08 nM.

As to `COC(=O)N1CC[C@H](Nc2nc(N3CCc4cc(N5CCCC5)ccc4C3)nc3c2[S+]([O-])CC3)C1` (stereo partly shown) [Compound 196], on Flpin-293-PDE4B2 cells [2], the inhibition at 0.001 µM came out at 23.7%, the inhibition at 0.01 µM turned out to be 89.5% and the inhibition at 0.1 µM amounted to 100%. In addition, the half-inhibitory concentration (IC50) at PDE4B2 [4] came out at 0.0693 nM. Further, the IC50 at PDE4D2 (setting [5]) turned out to be 0.244 nM.

With `[O-][S+]1CCc2nc(N3CCc4cc(N5CCCC5)ccc4C3)nc(NCCO)c21` (stereo not shown) [Compound 198], at Flpin-293-PDE4B2 cells [2], the inhibition at 0.001 µM is 18.1%, the inhibition at 0.01 µM worked out at 67.4% and the inhibition at 0.1 µM was determined as 97.7%. In addition, the IC50 at PDE4B2 [4] worked out at 0.608 nM. For the same compound, the IC50 on PDE4D2 (setting [5]) came to 1.79 nM.

Take `C[C@H]1c2ccc(N3CCCC3)cc2CCN1c1nc2c(c(NC3(CO)COC3)n1)[S+]([O-])CC2` (stereo partly shown) [Compound 200]: on Flpin-293-PDE4B2 cells [2], the inhibition at 0.001 µM worked out at 14.7%, the inhibition at 0.01 µM came to 74.4% and the inhibition at 0.1 µM was 99.9%. The IC50 on PDE4B2 [4] is 0.117 nM. Also, the IC50 on PDE4D2 (setting [5]) is 0.119 nM.

On to `C[C@H]1c2ccc(N3CCCC3)cc2CCN1c1nc2c(c(N[C@@H]3CC[C@H]3O)n1)[S+]([O-])CC2` (stereo partly shown) [Compound 201], for which, at Flpin-293-PDE4B2 cells [2], the inhibition at 0.001 µM was 7.33%, the inhibition at 0.01 µM is 72.3% and the inhibition at 0.1 µM came out at 99.9%. Further, the IC50 on PDE4B2 [4] stood at 0.194 nM. Moreover, the IC50 at PDE4D2 (setting [5]) was 0.596 nM.

As to `C[C@H]1c2ccc(N3CCCC3)cc2CCN1c1nc2c(c(NC3(CO)CCOCC3)n1)[S+]([O-])CC2` (stereo partly shown) [Compound 212], on Flpin-293-PDE4B2 cells [2], the inhibition at 0.001 µM stood at 3.24%, the inhibition at 0.01 µM came to 34.6% and the inhibition at 0.1 µM stood at 97.5%. Moreover, at PDE4B2 [4], the IC50 worked out at 0.945 nM. Besides, the IC50 on PDE4D2 (setting [5]) was found to be 1.25 nM.

As for `COc1nn(C)cc1Nc1nc(N2CCc3cc(N4CCCC4)ccc3[C@@H]2C)nc2c1[S+]([O-])CC2` (stereo partly shown) [Compound 216], at Flpin-293-PDE4B2 cells [2], the inhibition at 0.001 µM was determined as 11.7%, the inhibition at 0.01 µM was 50.4% and the inhibition at 0.1 µM came out at 98.2%. Moreover, the IC50 on PDE4B2 [4] was determined as 0.227 nM. In addition, the IC50 at PDE4D2 (setting [5]) amounted to 0.75 nM.
